# Measurements taken from patent US20140094413A1, “HEPATOCYTE GROWTH FACTOR (HGF) MIMICS AS THERAPEUTIC AGENTS” (WASHINGTON STATE UNIVERSITY, priority 2012, published 2014).
# “Also recorded” adds a separate entry of the source. Counter-ions that a name gives are not always drawn. Where a SMILES comes first, the peptide text is derived from it. [ ]: non-standard residue; d: D form. dNle = CCCC[C@@H](N)C(=O)O; Ahx = NCCCCCC(=O)O
# How the values were obtained:
# rats = assay: Morris water maze with i.c.v. Dihexa and HGF antagonist Hinge; format: in vivo, rat
# human HGF [1] = target: T1, human HGF (Homo sapiens, UniProt P14210); assay: HGF dimerization; format: biochemical; details: analogs at 10^−10 M, heparin, 30 minute incubation
# T1 construct: purchased R&D Systems (Minneapolis, Minn.)
# Method: HGF dimerization was assessed using PAGE followed by silver staining (Kawas et al., 2011). Human HGF at a concentration of 0.08 ng/μl with or without 6-AH analogs was incubated with heparin at a final concentration of 5 μg/ml. Loading buffer was then added to each sample and the mixture separated by native PAGE using gradient Criterion XT precast gels (4-12% Bis-Tris; Biorad Laboratories, Hercules, Calif.). Next the gel was silver stained for the detection of the HGF monomers and dimers. Bands were quantitated from digital images using a UVP phosphoimager (Upland, Calif.).
# human HGF [2] = target: T1, human HGF; assay: HGF binding, competition with 3H-Hinge; details: 1.25 ng HGF, 40 min at 37° C.; N=9
# Method: The binding of 6-AH analogs to HGF was assessed by competition using a soluble binding assay. 250 μl of PBS containing human HGF (1.25 ng) were incubated with ^3H-Hinge, the central dimerization domain of HGF, in the presence of varying concentrations of 6-AH analogs between 10^−13 M to 10^−7M (half-log dilutions) for 40 min at 37° C. The incubates were then spun through Bio-Gel P6 spin columns (400 μl packed volume) for 1 min to separate free and bound ^3H-Hinge and the eluent was collected. Five milliliters of scintillation fluid was added to the eluent, which contained the HGF bound ^3H-Hinge, and was then counted using scintillation counter. Total disintegrations per minute of bound ^3H-Hinge were calculated based on machine counting efficiency. The Ki values for the binding of the peptides were determined using the Prism 5. Competition binding curves were performed in triplicate.
# MDCK cells [3] = assay: Inhibition of HGF-dependent scattering in MDCK cells; format: cell-based, canine; details: HGF 20 ng/ml, 48 h
# Method: MDCK cells were grown to 100% confluency on the coverslips in six-well plates and washed twice with PBS. The confluent coverslips were then aseptically transferred to new six well plates containing 900 μl serum free DMEM. Norleual, Hinge peptide, and/or HGF (20 ng/ml) were added to appropriate wells. Control wells received PBS vehicle. Plates were incubated at 37° C. with 5% CO2 for 48 h. Media was removed and cells were fixed with methanol. Cells were stained with Diff-Quik Wright-Giemsa (Dade-Behring, Newark, Del.) and digital images were taken. Coverslips were removed with forceps and more digital images were captured. Pixel quantification of images was achieved using Image J and statistics were performed using Prism 5 and InStat v.3.05 (GraphPad; San Diego, Calif.).
# Met = assay: Inhibition of HGF-dependent Met phosphorylation in HEK293 cells; format: cell-based, human; details: 10 min with HGF+/− analog
# Method: HEK293 cells were seeded in 6 well tissue culture plates and grown to 95% confluency in DMEM containing 10% FBS. The cells were serum deprived for 24 h prior to the treatment to reduce the basal levels of phospho-Met. Following serum starvation, cocktails comprised of vehicle and HGF with/without 6-AH analogs were prepared and pre-incubated for 30 min at room temperature. The cocktail was then added to the cells for 10 min to stimulate the Met receptor and downstream proteins. Cells were harvested using RIPA lysis buffer (Millipore; Billerica, Mass.) fortified with phosphatase inhibitor cocktails 1 and 2 (Sigma-Aldrich; St. Louis, Mo.). The lysate was clarified by centrifugation at 15,000 nx g for 15 min, protein concentrations were determined using the BCA total protein assay (Pierce), and then appropriate volumes of the lysates were diluted with 2× reducing Laemmli buffer and heated for ten min at 95° C. Samples containing identical amounts of protein were resolved using SDS-PAGE (Criterion, BioRad Laboratories), transferred to nitrocellulose, and blocked in Tris-buffered saline (TBS) containing 5% milk for 1 h at room temperature. The phospho-Met antibody were added to the blocking buffer at a final concentration of 1:1000 and incubated at 4° C. overnight with gentle agitation. The membranes were then washed several times with water and TBS ([…], 0.05% Tween-20), a 1:5000 dilution of horseradish-peroxidase conjugated goat anti-rabbit antiserum was added, and the membranes further incubated for 1 h at room temperature. Proteins were visualized using the Supersignal West Pico Chemiluminescent Substrate system (Pierce, Fenton, Mo.) and molecular weights determined by comparison to protein ladders (BenchMark, Invitrogen, and Kaleidoscope, BioRad). Film images were digitized and analyzed using a UVP phosphoimager.
# hippocampal neurons [4] = assay: Spinogenesis in mRFP-β-actin transfected dissociated hippocampal neurons; format: cell-based, rat
# Method: (§1) Hippocampal neurons (2×10^5 cells per square cm) were cultured from P1 Sprague Dawley rats on plates coated with poly-L-lysine from Sigma (St. Louis, Mo.; molecular weight 300,000). Hippocampal neurons were maintained in Neurobasal A media from Invitrogen (Carlsbad, Calif.) supplemented with B27 from Invitrogen, 0.5 mM L-glutamine, and […] cytosine-D-arabinofuranoside from Sigma added at 2 days in vitro. Hippocampal neurons were then cultured a further 3-7 days, at which time they were either transfected or treated with various pharmacological reagents as described in (Wayman, Davare et al. 2008).
# (§2) Neurons were transfected with mRFP-β-actin on day in vitro 6 (DIV6) using LipofectAMINE™ 2000 (Invitrogen) according to the manufacturer's protocol. This protocol yielded the desired 3-5% transfection efficiency thus enabling the visualization of individual neurons. Higher efficiencies obscured the dendritic arbor of individual neurons. Expression of fluorescently tagged actin allowed clear visualization of dendritic spines, as dendritic spines are enriched in actin. […] On DIV 12 the neurons were fixed (4% paraformaldehyde, 3% sucrose, 60 mM PIPES, 25 mM HEPES, 5 mM EGTA, 1 mM MgCl2, pH 7.4) for 20 min at room temperature and mounted. Slides were dried for at least 20 hours at 4° C. and fluorescent images were obtained with Slidebook 4.2 Digital Microscopy Software driving an Olympus IX81 inverted confocal microscope with a 60× oil immersion lens, NA 1.4 and resolution 0.280 μm Dendritic spine density was measured on primary and secondary dendrites at a distance of at least 150 μm from the soma. Five 50 μm long segments of dendrite from at least 10 neurons per data point were analyzed for each data point reported. Each experiment was repeated at least three times using independent culture preparations. Dendrite length was determined using the National Institutes of Health's Image J 1.41o program (NIH, Bethesda, Md.) and the neurite tracing program Neuron J (Meijering, Jacob et al. 2004) Spines were manually counted.
# as §1, with “centimeter)” for “cm)”, “P1-2” for “P1”, “the text or figure legends.” for “(Wayman, Davare et al. 2008).”
# as §2, with “DIV12” for “DIV 12”, “Dendrite length was determined using the National Institutes of Health's Image J 1.41o program (NIH, Bethesda, Md.) and the neurite tracing program Neuron J (Meijering, Jacob et al. 2004) Spines were manually counted.” left out
# hippocampal neurons [5] = assay: Whole-cell recordings of mEPSCs in dissociated hippocampal neurons; format: cell-based, rat; set-up: unit not given beside the values; details: 10^−12 M (each), 5 days
# scopolamine treated rats = assay: Morris water maze, scopolamine amnesia model; details: Hinge 20 ng ICV; Dihexa 2 mg/kg orally; scopolamine 70 μg ICV
# Method: Male Sprague-Dawley rats (Taconic derived) weighing 390-450 g were maintained with free access to water and food (Harland Tekland F6 rodent diet, Madison, Wis.) except the night prior to surgery when food was removed. Each animal was anesthetized with Ketamine hydrochloride plus Xylazine (100 and 2 mg/kg im. respectively; Phoenix Scientific; St. Joseph, Mo., and Moby; Shawnee, Kans.). […] The guide cannula measured 2.5 cm in overall length and was prepared with a heat bulge placed 2.5 mm from its beveled tip, thus acting as a stop to control the depth of penetration. Once in position, the cannula was secured to the skull with two stainless-steel screws and dental cement. Post-operatively the animals were housed individually in an American Accreditation for Laboratory Animal Care-approved vivarium maintained at 22±1° C. on a 12-h alternating light/dark cycle initiated at 06:00 h. All animals were hand gentled for 5 min per day during the 5-6 days of post-surgical recovery. Histological verification of cannula placement was accomplished by the injection of 5 μl fast-green dye via the guide cannula following the completion of behavioral testing.
# A black circular platform (diameter: 12 cm; height: 24 cm) was placed 30 cm from the wall and submerged 2 cm below the water surface. The maze was operationally sectioned into four equal quadrants designated NW, NE, SW, and SE. For each rat the location of the platform was randomly assigned to one of the quadrants and remained fixed throughout the duration of training. Entry points were at the quadrant corners (i.e. N, S, E, and W) and were pseudo-randomly assigned such that each trial began at a different entry point than the preceding trial. Three of the four testing room walls were covered with extra-maze spatial cues consisting of different shapes (circles, squares, triangles) and colors. The swimming path of the animals was recorded using a computerized video tracking system (Chromotrack; San Diego Instruments, CA). […] Swim speed was determined from these values.
# Each member of the treatment groups in the scopolamine studies received an icy injection of scopolamine hydrobromide (70 nmol in 2 μl aCSF over a duration of 20 s) 30 min prior to testing followed by Dihexa 10 min prior to testing. Control groups received scopolamine or aCSF 20 min prior to testing followed by aCSF 10 min prior testing. […] The rats in the aged rat study on received Dihexa of aCSF (control group). Briefly, acquisition trials were conducted on 8 consecutive days with 5 trials/day. On the first day of training the animal was placed on the platform for 30 s prior to the first trial. Trials commenced with the placement of the rat facing the wall of the maze at one of the assigned entry points. […] Once the animal located the platform it was permitted a 30 s rest period on the platform. […] The next trial commenced immediately following the rest period.
# Following day 8 of acquisition training, one additional trial was conducted during which the platform was removed (probe trial). […] Total time spent within the target quadrant where the platform had been located during acquisition and the number of crossings of that quadrant was recorded.
# MDCK cells [6] = assay: HGF-dependent MDCK cell proliferation (MTT); format: cell-based, canine; details: analogs at 10^−10M, HGF 10 ng/ml, 4 days
# Method: 5000 MDCK cells were seeded into the wells of a 96 well plates in 10% FBS DMEM. To induce cellular quiescence, the cells were serum deprived for 24 h prior to initiating the treatments. Following serum starvation, 10 ng/ml HGF alone and with various concentrations of 6-AH analogs or PBS vehicle were added to the media. The cells were allowed to grow under these conditions for 4 days with a daily addition of 6-AH analogs. On the fourth day, 1 mg/ml of […] (MTT, Sigma-Aldrich) prepared in PBS was added to the cells and incubated for 4 h. Dimethyl sulfoxide diluted in a 0.01M glycine buffer was added to solubilize the cell membranes and the absorbance of reduced MTT in the buffer was quantitated at 590 nm using a plate reader (Biotek Synergy 2, Winooski, Vt.). HGF-dependent proliferation was determined by subtracting the basal proliferation (in the absence of HGF) from total proliferation rates in groups containing HGF.
# [7] = aCSF followed by Hinge, no scopolamine
# T1 sequence (P14210 32-728): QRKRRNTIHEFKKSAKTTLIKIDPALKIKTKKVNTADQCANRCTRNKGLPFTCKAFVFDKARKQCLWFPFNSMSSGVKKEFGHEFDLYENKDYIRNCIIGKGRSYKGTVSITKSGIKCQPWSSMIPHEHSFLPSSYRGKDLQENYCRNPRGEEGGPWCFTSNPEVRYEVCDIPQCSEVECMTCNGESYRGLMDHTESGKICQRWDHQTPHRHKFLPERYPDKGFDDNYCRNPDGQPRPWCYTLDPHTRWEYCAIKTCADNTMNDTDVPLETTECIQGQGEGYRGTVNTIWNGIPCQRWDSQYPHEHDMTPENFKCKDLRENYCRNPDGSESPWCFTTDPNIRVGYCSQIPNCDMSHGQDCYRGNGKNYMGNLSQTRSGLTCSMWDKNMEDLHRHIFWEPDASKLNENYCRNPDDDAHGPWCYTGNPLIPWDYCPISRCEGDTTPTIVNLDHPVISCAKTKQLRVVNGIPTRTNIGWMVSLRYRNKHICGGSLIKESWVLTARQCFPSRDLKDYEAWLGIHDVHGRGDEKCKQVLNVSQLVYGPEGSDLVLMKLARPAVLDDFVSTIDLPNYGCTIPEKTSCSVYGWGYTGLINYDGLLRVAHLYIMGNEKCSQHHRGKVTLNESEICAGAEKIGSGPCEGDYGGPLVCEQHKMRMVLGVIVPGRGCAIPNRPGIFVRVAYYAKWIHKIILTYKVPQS
molecule,measurement,setting,value
"CN1[C@@H]2C[C@@H](OC(=O)[C@H](CO)c3ccccc3)C[C@H]1[C@@H]1O[C@@H]12 [scopolamine, scopolamine hydrobromide]","Mean latency to find the pedestal, day one",rats; scopolamine treated rats,114.7 s
same,"Mean latency to find the pedestal, final day (day 8)",rats; scopolamine treated rats,84.8 s
same,"Mean latency to find the pedestal, fourth day",rats; scopolamine treated rats,102.4 s
CCCC[C@@H](N)C(=O)N[C@@H](CCSC)C(=O)N[C@H](C(=O)NCCCCCC(N)=O)[C@@H](C)CC [D-Nle-Met-Ile-NH—(CH2)5—CONH2] (H-[dNle]MI[Ahx]-NH2),Inhibition of HGF dimerization,human HGF [1],unable to block dimerization at the concentration tested
same,Ki,human HGF [2],138 nM
same,Inhibition of HGF-dependent MDCK cell scattering,MDCK cells [3],not different
same,Inhibition of HGF-dependent Met phosphorylation,Met,no ability to effect on Met activation
same,Inhibition of HGF-dependent Met phosphorylation,Met; listed as Met,not different than the HGF group
DYIRNC (Synthetic hinge peptide),Inhibition of Dihexa-induced spinogenesis,"hippocampal neurons [4]; Hinge 10^−12 M, Dihexa 10^−12 M",did effectively inhibit spine formation; also recorded: inhibits Dihexa-induced spinogenesis; also recorded: inhibits Dihexa induced spinogenesis
same,Inhibition of HGF-induced spinogenesis,"hippocampal neurons [4]; Hinge 10^−12 M, HGF 10 ng/ml",did effectively inhibit spine formation; also recorded: inhibits HGF-induced spinogenesis; also recorded: inhibits HGF induced spinogenesis
same,Inhibition of Nle1-AngIV-induced spinogenesis,"hippocampal neurons [4]; Hinge 10^−12 M, Nle1-AngIV 10^−12 M",did effectively inhibit spine formation; also recorded: inhibits Nle1-AngIV-induced spinogenesis; also recorded: inhibits Nle^1-AngIV induced spinogenesis
same,Effect on basal spinogenesis,"hippocampal neurons [4]; Hinge alone, wide range of doses",no effect on spinogenesis over a wide range of doses; also recorded: does not affect spinogenesis; also recorded: had no effect on basal spine levels
same,mEPSC mean frequency,hippocampal neurons [5],4.51±0.47
same,Effect on learning in the water maze,rats; Hinge alone,no effect on learning
same,"Mean latency to find the pedestal, day one",rats; [7],111.1 s
same,"Mean latency to find the pedestal, final day (day 8)",rats; [7],46.1 s
same,"Mean latency to find the pedestal, fourth day",rats; [7],78.3 s
same,Blockade of Dihexa's reversal of scopolamine cognitive dysfunction,scopolamine treated rats,blocked
CCCC[C@@H](N)C(=O)N[C@@H](Cc1c[nH]c2ccccc12)C(=O)N[C@H](C(=O)NCCCCCC(N)=O)[C@@H](C)CC [D-Nle-Trp-Ile-NH—(CH2)5—CONH2] (H-[dNle]WI[Ahx]-NH2),Inhibition of HGF dimerization,human HGF [1],intermediate inhibition of dimerization
same,Inhibition of HGF dimerization,human HGF [1]; listed as Trp,statistically different than the HGF treated group
same,Ki,human HGF [2],3.37 nM
same,Inhibition of HGF-dependent MDCK cell scattering,MDCK cells [3],different from the HGF alone group but not different from the control group
same,Inhibition of HGF-dependent Met phosphorylation,Met,intermediate inhibitory activity
same,Inhibition of HGF-dependent MDCK cell proliferation,MDCK cells [6],"showed inhibitory activity, albeit less than that observed with the most potent analogs"
